Values of other authors as cited in patent publication US6486128B1, “Method of using emamectin to treat fish parasites” (Schering-Plough Veterinary Corporation, priority 1999, dated 2002).

Assays:
sea lice = conditions: commonly adopted dose rate of 25 μg kg^−1 biomass twice weekly; cited from earlier work
[1] = orally administered; cited from earlier work

22,23-dihydroavermectin B1 [ivermectin]
control of sea lice (sea lice): some control | levels found to be toxic [1]: greater than 25 μg kg^−1 biomass twice weekly
